Data: patent US8569301B2, “6, 6-dioxo-6-thia-1, 4-diaza-naphthalenes as herbicides” (Syngenta Limited, priority 2009, dated 2013)

Assays:
Type in all cases: in vivo
Conditions in all cases: sprayed after 8 days cultivation, evaluated after 13 days, scores from 10 to 0 (10=total damage to plant; 0=no damage to plant)
IPOHE = test: Example B1 herbicidal action post-emergence, IPOHE
Experimental: (§1) Seeds of a variety of test species were sown in standard soil in pots. After 8 days cultivation (post-emergence) under controlled conditions in a glasshouse (at 24/16° C., day/night; 14 hours light; 65% humidity), the plants were sprayed with an aqueous spray solution derived from the formulation of the technical active ingredient in acetone/water (50:50) solution containing 0.5% Tween 20 (polyoxyethelyene sorbitan monolaurate, CAS RN 9005-64-5). The test plants were then grown under controlled conditions in a glasshouse (at 24/16° C., day/night; 14 hours light; 65% humidity) and watered twice daily. After 13 days, the test was evaluated and the assessed scores, from 10 to 0, are tabulated in Table B1 (10=total damage to plant; 0=no damage to plant).

SOLNI = test: Example B1 herbicidal action post-emergence, SOLNI
Experimental: as §1

SETFA = test: Example B1 herbicidal action post-emergence, SETFA
Experimental: as §1

AMARE = test: Example B1 herbicidal action post-emergence, AMARE
Experimental: as §1

ECHCG = test: Example B1 herbicidal action post-emergence, ECHCG
Experimental: as §1

SMILES	assessed score, application post-emergence, IPOHE (IPOHE; Rate 1000 g/ha)	assessed score, application post-emergence, SOLNI (SOLNI; Rate 1000 g/ha)	assessed score, application post-emergence, SETFA (SETFA; Rate 1000 g/ha)	assessed score, application post-emergence, AMARE (AMARE; Rate 1000 g/ha)	assessed score, application post-emergence, ECHCG (ECHCG; Rate 1000 g/ha)	assessed score, application post-emergence, IPOHE (IPOHE; Rate 250 g/ha)	assessed score, application post-emergence, SOLNI (SOLNI; Rate 250 g/ha)	assessed score, application post-emergence, SETFA (SETFA; Rate 250 g/ha)	assessed score, application post-emergence, AMARE (AMARE; Rate 250 g/ha)	assessed score, application post-emergence, ECHCG (ECHCG; Rate 250 g/ha)
CCC1c2nccnc2C(O)=C(c2c(Cl)cccc2C(F)(F)F)S1(=O)=O (stereo not shown) [Compound E1, 7-(2-chloro-6-trifluoromethyl-phenyl)-5-ethyl-6,6-dioxo-5,6-dihydro-6-thia-1,4-diaza-naphthalen-8-ol]	7	9	8	9	7					
O=S1(=O)C(c2cc(Cl)ccc2C(F)(F)F)=C(O)c2nccnc2C1CC(F)F (racemic) [Compound E7]						7	7	2	6	2
O=S1(=O)Cc2nccnc2C(O)=C1c1ccc(Cl)cc1C(F)(F)F [Compound C17]	7	10	8	10	8					
CCC1c2nccnc2C(O)=C(c2ccc(Br)cc2C(F)(F)F)S1(=O)=O (stereo not shown) [Compound E14]	7	10	6	9	7					
O=S1(=O)C(c2c(Cl)cccc2C(F)(F)F)=C(O)c2nccnc2C12CC2 [Compound F4]	7	9	8	9	6					
O=S1(=O)Cc2nccnc2C(O)=C1c1cc(F)ccc1Cl [Compound C15]	3	8	6	7	5					
O=S1(=O)Cc2nccnc2C(O)=C1c1c(F)ccc(Cl)c1Cl [Compound C1, 7-(2,3-dichloro-6-fluoro-phenyl)-6,6-dioxo-5,6-dihydro-6-λ-6-thia-1,4-diaza-naphthalen-8-ol]	8	8	8	10	7					
Cc1cc(C)c(C2=C(O)c3nccnc3C(CC(F)F)S2(=O)=O)c(C)c1 (stereo not shown) [Compound E17]	7	7	10	10	10					
O=S1(=O)Cc2nccnc2C(O)=C1c1c(F)ccc(Br)c1Cl [Compound C21, 7-(3-bromo-2-chloro-6-fluoro-phenyl)-6,6-dioxo-5,6-dihydro-6-thia-1,4-diaza-naphthalen-8-ol]	8	10	7	9	7					
O=S1(=O)C(c2c(F)ccc(Br)c2Cl)=C(O)c2nccnc2C1Cc1ccc(Cl)s1 (stereo not shown) [Compound E24]	5	7	0	6	0					
O=S1(=O)Cc2nccnc2C(O)=C1c1ccc(F)cc1Cl [Compound C8]	1	7	5	5	3					
O=S1(=O)C(c2cc(Cl)ccc2C(F)(F)F)=C(O)c2nccnc2C12CC2 [Compound F11, 7-(5-chloro-2-trifluoromethyl-phenyl)-5,5-cyclopropyl-6,6-dioxo-5,6-dihydro-6-thia-1,4-diaza-naphthalen-8-ol]	7	7	2	6	3					
Cc1cc(C)c(C2=C(O)c3nccnc3CS2(=O)=O)c(C)c1 [Compound C20]	7	7	4	1	4					
CCOCOC1=C(c2cc(Cl)ccc2C(F)(F)F)S(=O)(=O)Cc2nccnc21 [Compound X1, 7-(5-chloro-2-trifluoromethyl-phenyl)-8-ethoxymethoxy-5H-6-thia-1,4-diaza-naphthalene 6,6-dioxide]	7	8	6	6	2					
O=S1(=O)Cc2nccnc2C(O)=C1c1c(Cl)cc(Cl)cc1Cl [Compound C23]	8	9	7	8	8					
O=S1(=O)Cc2nccnc2C(O)=C1c1c(F)ccc(F)c1Cl [Compound C12]	6	8	6	8	3					
O=S1(=O)Cc2nccnc2C(O)=C1c1cccc(F)c1C(F)(F)F [Compound C10]	6	8	6	6	5					
CC1c2nccnc2C(O)=C(c2c(F)ccc(Br)c2Cl)S1(=O)=O (stereo not shown) [Compound E11]	9	10	8	8	8					
CCc1cc(-c2ccc(Cl)cc2Cl)ccc1C1=C(O)c2nccnc2CS1(=O)=O [Compound C24]	3	6	10	10	7					
O=S1(=O)C(c2c(Cl)cccc2C(F)(F)F)=C(O)c2nccnc2C1CC(F)F (racemic) [Compound E4]	7	8	6	9	6					
CC1(C)c2nccnc2C(O)=C(c2ccc(Br)cc2C(F)(F)F)S1(=O)=O [Compound F6]						8	9	8	9	9
CC(C)C(=O)OC1=C(c2c(F)ccc(Br)c2Cl)S(=O)(=O)Cc2nccnc21 [Compound X2, isobutyric acid 7-(3-bromo-2-chloro-6-fluoro-phenyl)-6,6-dioxo-5,6-dihydro-6-thia-1,4-diaza-naphthalen-8-yl ester]	8	10	8	10	8					
CCC1c2nccnc2C(O)=C(c2cc(Cl)ccc2C(F)(F)F)S1(=O)=O (racemic) [Compound E6]	7	8	3	8	5					
O=S1(=O)Cc2nccnc2C(O)=C1c1cc(C(F)(F)F)ccc1C(F)(F)F [Compound C16]	7	10	3	9	5					
O=S1(=O)C(c2c(F)ccc(Br)c2Cl)=C(O)c2nccnc2C1Cc1ccccc1 (stereo not shown) [Compound E23]	6	8	4	6	8					
C#CCC1c2nccnc2C(O)=C(c2c(C)cc(C)cc2C)S1(=O)=O (stereo not shown) [Compound E16]	5	8	2	5	2					
